Laboratory results reported in patent US20210269479A1, “USE OF CY[…] FOR TREATING CANCER” (Hepion Pharmaceuticals, Inc., priority 2020, published 2021).

Tests used:
[1] = system: fibroblastic cells (IPF lung fibroblasts, cardiac fibroblasts, dermal fibroblasts, renal mesangial cells, LX2 hepatic stellate cell line); test: Procollagen and fibronectin (ECM) secretion from fibroblastic cells, ELISA; assay type: cell-based
From the text: For example, as described herein, CRV431 can regulate oncogenes, and have anti-oncogenic activities. CRV431 can decrease production of the extracellular matrix (ECM) molecules, collagen and fibronectin, from fibroblastic cells derived from five cell types, including lung fibroblasts from a patient with idiopathic pulmonary fibrosis (“IPF”), cardiac fibroblasts, dermal (skin) fibroblasts, renal mesangial cells, and the LX2 hepatic stellate cell line. It is known that IPF is an aggressive fibrotic disease in tremendous need of new treatments. […] The extent of inhibition was similar whether or not the cells were stimulated with the profibrotic agent, transforming growth factor-beta (TGFβ), consistent with direct effects on ECM synthesis.

[2] = system: liver tumors (likely hepatocellular carcinoma); test: Liver tumor burden in streptozotocin/high-fat diet NASH mice; assay type: in vivo, C57BL/6J male mice
Procedure: NASH was initiated in 2-day-old C57BL/6J male mice by intraperitoneal injection with […] streptozotocin (S0130; Sigma-Aldrich) to disrupt pancreatic β cells, induce diabetes, and promote adiposity in the liver. Mice were weaned at 3 weeks of age and begun on a high-fat diet with 60% kcal fat (D12492N; Research Diets) for the duration of the studies. Additionally, mice with a regular diet (D12450KN; Research Diets) and without streptozotocin were included as negative controls. CRV431 was dissolved in a self-microemulsifying drug vehicle and then diluted with PBS and administered daily by oral gavage at 50 mg/kg per day. The start time and duration of vehicle and CRV431 treatments varied depending on the study.
In two separate experiments, tumor burden at the end of treatment was assessed by the number of tumors (FIGS. 11A and 12A) and a composite score based on the number and size of tumors (0-7 scale; FIGS. 11B and 12B).

[3] = system: human precision cut liver slices (PCLS); test: Sirius red histological staining of PCLS (tissue fibrosis); assay type: cell-based
Procedure: PCLS were obtained from 5 human donors who underwent resection of liver cancer. Replicate slices were collected from healthy margins of the resections and cultured for 4 or 6 days depending on the experimental protocol. In the Nonstimulation Protocol slices were cultured for 6 days and treated for the entire period with DMSO vehicle or 5 μM CRV431. In the Stimulation Protocol slices were rested for 1 day and then administered the cytokines, TGFβ and PDGF-BB, for 3 days to stimulate inflammation and fibrosis. DMSO vehicle, CRV431 (1 and 5 μM), Alk5i (10 μM), obeticholic acid (5 μM), elafibranor (5 μM), resmetirom (5 μM), and Aramchol (5 μM) were administered individually as drug treatments in the Stimulation Protocol concurrent with TGFβ+PDGF-BB. Culture medium treatments were replaced daily.
(b) Sirius red histological staining. […] Sirius red was quantified morphometrically in the histological sections as the percentage area with Sirius red staining in 10 sections from each treatment. In the Nonstimulation Protocol the quantity of Sirius red staining was expressed relative to the vehicle group. In the Stimulation Protocol the quantity of Sirius red staining was expressed relative to nonstimulated PCLS (0%) and TGFβ+PDGF-BB-stimulated+vehicle PCLS (100%). Results are shown in FIG. 1B (Sirius red staining for tissue fibrosis).

[4] = system: Huh7 hepatocellular carcinoma cells; conditions: 4 days, strongest with 0.37 μM daunorubicin and CRV431 1-4 μM
Procedure: (§1) HepG2 hepatocellular carcinoma cell lines and Huh7 hepatocellular carcinoma cell lines were plated in 96 well plates at subconfluent densities. The chemotherapy compound, daunorubicin, and CRV431 were applied alone or in combination at the indicated concentrations in duplicate wells for each treatment. After 4 days incubation, cell viability was assessed with Cell Titer Glo 2.0.

[5] = system: HepG2 hepatocellular carcinoma cells; conditions: 4 days, strongest with 0.37 μM daunorubicin and CRV431 0.25-4 μM
Procedure: as §1

[6] = 50 mg/kg per day oral gavage, weeks 20 to 30

SMILES: CC[C@@H]1NC(=O)[C@H]([C@H](O)[C@H](C)CCCCCCNC(C)=O)N(C)C(=O)[C@H](C(C)C)N(C)C(=O)[C@H](CC(C)C)N(C)C(=O)[C@H](CC(C)C)N(C)C(=O)[C@@H](C)NC(=O)[C@H](C)NC(=O)[C@H](CC(C)C)N(C)C(=O)[C@H](C(C)C)NC(=O)[C@H](CC(C)C)N(C)C(=O)[C@@H](C)N(C)C1=O [CRV431]
- procollagen and fibronectin secretion ([1]; ELISA, with or without TGFβ stimulation): dose-dependently decreased procollagen and fibronectin secretion from all cell types
- cell viability ([1]; clinically relevant concentrations): without causing any reduction in cell viability
- decrease of ECM production ([1]; clinically relevant concentrations, collagen and fibronectin): up to 55%
- decrease of tumor burden (score combining tumor number and size) [2, 6]: 52%
- livers lacking tumors [2, 6]: 2 of 10
- number of liver tumors vs vehicle [2, 6]: half the number of tumors
- tumor size vs vehicle [2, 6]: smaller tumors on average
- Tumor number, mean ([2]; 50 mg/kg/day, end of treatment): 4.80
- Tumor score, mean (0-7 scale) ([2]; 50 mg/kg/day, end of treatment): 2.40
- tissue fibrosis vs vehicle-treated slices ([3]; 6 days of culture, absence of exogenous TGFβ+PDGF-BB): less fibrosis than vehicle-treated slices
- prevention of TGFβ+PDGF-BB-induced tissue fibrosis ([3]; Stimulation Protocol, compared with other NASH drug candidates): most effective of five NASH drug candidates
- effect on cytotoxicity of daunorubicin [4]: increased the cytotoxicity of daunorubicin
- effect on cytotoxicity of daunorubicin [5]: increased the cytotoxicity of daunorubicin
